# Source: ChEMBL document CHEMBL3507680, “University of Dundee, Gates Library screen for HepG2 cell viability”
# Assay: Human HepG2 cell viability assay in 384 well format
# Type: toxicity, cell-based
# Set-up: dose 125 nL, time 70.5 hour; concentration not given beside the values
# Details: HepG2 cells, read-out: Inhibition
row,Compound,cytotoxicity at 70.5 h [%]
1,Cc1cc(=O)[nH]cc1C(=O)N1CCN(C)c2ccccc2C1,-0.391
2,CC(C)(CO)CCCNC(=O)NC1(c2ccccc2F)CC1,3.5
3,CC(=O)N(Cc1ccc(NCc2cnn(C(C)(C)C)c2)cc1)C(C)C,-3.55
4,Cc1cc(C(=O)N2CCN(c3ccncc3Cl)CC2)n(C)n1,-1.44
5,COc1cccc(OCC(=O)N(C)c2cccnc2)c1,24
6,Cc1cccc(C2CCCN2Cc2nc(N)nc(N(C)C)n2)c1C (stereo not given),-9.17
7,CSCC1CCN(C(=O)c2ccccc2NCc2cccnc2)C1 (stereo not given),-8.12
8,Cc1noc(C(C)N2CCc3[nH]c4ccc(Cl)cc4c3C2)n1 (stereo not given),-8.97
9,CS(=O)(=O)CCN(CCc1cccc(F)c1)C1CC1,-0.807
10,COc1cc2c(c(OC)c1OC)CCN(CCn1cncn1)CC2,-8.44
11,COc1cc2c(c(OC)c1OC)CCN(CCn1nc(C)cc1C)CC2,-6.93
12,COCCc1noc(CNC(C)(CO)C2CCCCC2)n1 (stereo not given),-0.882
13,CC(C)OC(=O)NCc1ccc(NCc2cnn(C(C)(C)C)c2)cc1,-13.1
14,CN(C)C(=O)c1cccn1-c1ccc2c(c1)OCCO2,-2.2
15,O=C(C(c1ccccc1)N1CCc2cncnc2C1)N1CCCCC1 (stereo not given),7.48
16,Fc1ccc(-c2cnc(CNC3CCc4ncnn4C3)o2)cc1 (stereo not given),-8.23
17,CC(Nc1ccn(Cc2ccccn2)n1)C(=O)NC(C)(C)C (stereo not given),-7.21
18,Fc1ccc(-c2ccc(CNC3CCc4ncnn4C3)o2)cc1 (stereo not given),-9.49
19,Cn1cnc2c1CCN(C(C(=O)N1CCCCC1)c1ccccc1)C2 (stereo not given),-6.79
20,CCc1nnsc1C(=O)N1CCN(CC(O)CC)CC1 (stereo not given),-10.3

row,Compound,cytotoxicity at 70.5 h [%]
1,Cn1nnc2c1CCN(C(C(=O)N1CCCCC1)c1ccccc1)C2 (stereo not given),-7.33
2,CC(C)Oc1ccc(C(O)CNCc2ccccc2C(F)(F)F)cc1 (stereo not given),-6.08
3,CCCS(=O)(=O)CC(=O)N1CCN(CC2CC2)c2ccccc21,-7.98
4,CS(=O)(=O)CCCC(=O)N1CCN(CC2CC2)c2ccccc21,-7.11
5,CC(C)N(C)CC(=O)NCC(O)c1cc2ccccc2s1 (stereo not given),-7.72
6,CN(C)S(=O)(=O)NCC(O)c1cc2ccccc2s1 (stereo not given),3.05
7,CNC(=O)C1CCCN(C(=O)OC)C1 (stereo not given),-5.12
8,OCC(CO)Nc1ccc2c(Cl)ccc(Cl)c2n1,-1
9,COCCC(=O)N1CCN(CC2CC2)c2ccccc21,-3.57
10,O=C(CNC1CCc2ncnn2C1)N(C1=CCCCC1)C1CC1 (stereo not given),-2.56
11,COc1ccc(N(Cc2ccco2)C(=O)C2CCCO2)cc1F (stereo not given),-2.54
12,CCCN(C(=O)CNC1CCc2ncnn2C1)C1=CCCCC1 (stereo not given),-10.9
13,CC(C)c1cc(C(=O)NCC(O)C2CCOCC2)nn1C(C)(C)C (stereo not given),1.71
14,COc1cccc(F)c1C(C)NC(=O)NCc1ccnc(C)n1 (stereo not given),26.5
15,CN(c1ccc(C#N)cn1)C1CCCN(Cc2noc(C3CC3)n2)C1 (stereo not given),-0.287
16,CC(=O)NCC1CCN(C(=O)c2c[nH]c3cc(Cl)ccc23)CC1,-10.5
17,Cc1nn(C)c(Cl)c1S(=O)(=O)N(C)c1ccc(Cl)cn1,0.786
18,Cc1cc(N(C)C)nc(NCCn2cccn2)n1,-10
19,Cc1cnn(CCNc2nc(C)cc(N(C)C)n2)c1,11.4
20,CCCN1C(=O)C2(CCCCC2)NC1c1cn(C)c(=O)n(C)c1=O (stereo not given),-6.69

row,Compound,cytotoxicity at 70.5 h [%]
1,CCSc1cncc(N2CCC(C(=O)Nc3ccccn3)CC2)n1,-3.08
2,CCSc1cncc(N2CCC(C(=O)NC(C)C(C)C)CC2)n1 (stereo not given),-3.06
3,CN(Cc1cccs1)C(=O)Cn1cc(NC(=O)C(C)(C)C)cn1,-7.51
4,CN(CC(F)(F)F)C(=O)Cn1cc(NC(=O)C(C)(C)C)cn1,3.96
5,COCCC(=O)Nc1cc(CC(C)(C)C)n[nH]1,-6.88
6,O=C(NCC(O)C1CC1)Nc1cnn(Cc2ccccc2)c1 (stereo not given),-7.29
7,CC(C)C(O)CNC(=O)Nc1cnn(C(C)C)c1 (stereo not given),-8.43
8,Cc1cccn2cc(C[S+]([O-])Cc3noc(C(C)C)n3)nc12 (stereo not given),-1.76
9,COc1ccc(F)c(NCc2ccc(C(=O)N(C)C)[nH]2)c1,15.8
10,Cc1ccc(CNC(=O)N2CCc3ccccc3C2CO)s1 (stereo not given),-5.32
11,Cc1ccc(F)c(NCc2ccc(C(=O)N(C)C)[nH]2)c1,-3.46
12,CCCc1nc(CNc2ccc(F)c(F)c2)no1,14.6
13,CC(=O)NCC1CCN(C(=O)c2c(C)[nH]c3ccc(Cl)cc23)CC1,-0.185
14,CCc1nc(CNc2ccc(F)c(F)c2)no1,-7.5
15,CC(C)N(CC1CCCN(Cc2ccon2)C1)C(=O)OC(C)(C)C (stereo not given),-2.83
16,N#CCSCCCN1CCC(C(=O)N2CCCCCC2)CC1,-5.04
17,COc1ccc(C)cc1CC(=O)NC(CC(=O)O)c1ccc(F)cc1 (stereo not given),-18.4
18,CNC(=O)C(C)NC(=O)c1ccc(Oc2cccnc2)cc1 (stereo not given),-10.1
19,O=C(O)CC(NC(=O)c1cc(Br)c[nH]1)c1ccccc1 (stereo not given),-7.36
20,CC(C)c1noc(CS(=O)(=O)CC(=O)NCc2ccccc2)n1,-9.16
